The values that follow come from patent US9321762B2, “Quinazoline compounds, method for preparing the same and use thereof” (DEVELOPMENT CENTER FOR BIOTECHNOLOGY, priority 2013, dated 2016).

Assay [1] has as its target T1, VEGFR2 kinase (Homo sapiens, UniProt P35968).
T1 construct: VEGFR2 kinase domain alone, Millipore; purchased Millipore
Put plainly: VEGFR2 radiometric kinase assay. The format is biochemical. The following applies: given as bound; 100 μM ATP; read-out: Inhibition activity, IC50 VEGFR2. The procedure: (§1) The inhibitory activity against VEGFR2 or EGFR was determined by radiometric kinase assay. The experimental condition for VEGFR2 kinase assay was 6.25 ng of recombinant VEGFR2 kinase (VEGFR2 kinase domain alone, Millipore), 5 μg of substrate Poly(Glu-Tyr) (4:1, Sigma), kinase reaction buffer (20 mM MOPS pH 7.0, 1 mM EDTA, 5% glycerol, 0.01% Brij-35, 0.1% β-mercaptoethanol, 1 mg/mL BSA, 100 μM ATP, and 0.1 μCi per well [^33P] ATP (specific activity 3000 Ci/mmol, PerkinElmer)), and the test compound (diluted with 4% DMSO) or DMSO alone (as a control) in a final volume of 25 μL. Reactions were incubated at 30° C. for 30 min and stopped by adding 3% phosphoric acid, harvested onto a 96-well GF/B UniFilter (PerkinElmer) using a unifilter harvester (PerkinElmer), and counted with a TopCount microplate scintillation counter (PerkinElmer).
(§2) Results of inhibition activity against VEGFR2 and EGFR kinases by the selected compounds, which have IC50 values on B-Raf kinase <300 nM, are summarized in Table 6.

The subject of assay [2] is A375 melanoma cells and COLO205 colon cancer cells. As to the kind of experiment: Cell proliferation assay (CellTiter-96). The format is cell-based. The following applies: Homo sapiens; A375 or COLO205, 72 hours treatment; read-out: Cytotoxicity IC50 for A375 or COLO205. The procedure:
The anti-proliferative activities of compounds of formula (I) against B-Raf(V600E) mutant human cancer cell lines, A375 melanoma cells and COLO205 colon cancer cells, were measured using the CellTiter™-96 assay kit (Promega) following the manufacturer's instructions. In brief, the cells were maintained in DMEM containing 10% FCS and incubated at 37° C. in 5% CO2 atmosphere. Cells were plated at a density of 2,000 cells/well on a 96-well plate and incubated for 24 h. Then, these cells were treated with different concentrations of the test compounds and incubated for another 72 hours. At the end of the incubation, CellTiter™-96 Aqueous One Solution Reagent (Promega) was added and incubated for another 4.0 hours. Cell viability was determined by measuring absorbance at 490 nm using EMax® microplate reader (Molecular Devices). Data were processed and analyzed using GraphPad Prism.

For assay [3], the target named is T2, B-Raf(V600E) kinase (Homo sapiens, UniProt P15056, V600E).
T2 construct: purchased Upstate Biotechnology
Put plainly: B-Raf(V600E) kinase assay ([33P] incorporation into MEK1(K97R)). The following applies: class symbols; 8 μM ATP; read-out: IC50 against B-Raf(V600E) kinase. The format is biochemical. The procedure: (§3) Inhibition of kinase activity by a test compound disclosed herein was estimated by quantifying the amount of [^33P] incorporation of a substrate in the presence of the test compound. Standard assay conditions were 5 ng of recombinant B-Raf(V600E) kinase (Upstate Biotechnology) with 500 ng MEK1 (K97R) in assay buffer (8 μM ATP, 0.5 μCi [^33P] ATP (specific activity 3000 Ci/mmol, PerkinElmer), 50 mM Tris/HCl (pH7.5), and 1 mM EGTA, 1 mM Na3VO4, 1% 2-mercaptoethanol, 0.1% Brij 35, and 0.2 mg/ml BSA), and the test compound (diluted with 4% DMSO) or DMSO alone (as a control) in a final volume of 25 μL. Reactions were incubated at 30° C. for 30 min and stopped by adding 3% phosphoric acid, harvested onto a 96-well GF/B UniFilter (PerkinElmer) using a unifilter harvester (PerkinElmer), and counted with a TopCount microplate scintillation counter (PerkinElmer). The IC50 values of inhibitors were determined after carrying out assays at 3-fold serially diluted concentrations of each compound in duplication. The results were analyzed using linear regression software (GraphPad Prism 4; GraphPad Software Inc.).

Assay [4] addresses T3, EGFR kinase (Homo sapiens, UniProt P00533).
T3 construct: EGFR kinase domain alone, Millipore; purchased Millipore
As to the kind of experiment: EGFR radiometric kinase assay. The format is biochemical. The following applies: 100 μM ATP, read-out: Inhibition activity, IC50 EGFR. The procedure:
as §1
The experimental condition for EGFR kinase assay was 25 ng of EGFR kinase (EGFR kinase domain alone, Millipore), 3 μg of the substrate poly(Glu-Tyr), (Sigma), kinase reaction buffer (10 mM MOPS pH 7.0, 0.3 mM EDTA, 0.5% glycerol, 0.001% Brij-35, 10 mM MnCl2, 0.1 mg/ml BSA, 100 μM ATP, and 0.1 μCi per well [^33P]ATP (specific activity 3000 Ci/mmol, PerkinElmer)), and the test compound (diluted with 4% DMSO) or DMSO (as a control) in a final volume of 25 μL. Reactions were incubated at 30° C. for 30 min and stopped by adding 3% phosphoric acid, harvested onto a 96-well GF/B UniFilter (PerkinElmer) using a unifilter harvester (PerkinElmer), and counted with a TopCount microplate scintillation counter (PerkinElmer).
as §2

Assay [5] concerns the target T4, B-Raf kinase (Homo sapiens, UniProt P15056).
T4 construct: purchased Upstate Biotechnology
As to the kind of experiment: B-Raf kinase assay ([33P] incorporation into MEK1(K97R)). The format is biochemical. The following applies: class symbols; 8 μM ATP; read-out: IC50 against B-Raf kinase. The procedure:
as §3, with “B-Raf” for “B-Raf(V600E)”, “MEK1(K97R)” for “MEK1 (K97R)”, “[^33P]ATP” for “[^33P] ATP”, “BSA)” for “BSA), and the test compound (diluted with 4% DMSO) or DMSO alone (as a control)”

For assay [6], the target named is T5, C-Raf kinase (Homo sapiens, UniProt P04049).
T5 construct: purchased Upstate Biotechnology
Put plainly: C-Raf kinase assay ([33P] incorporation into MEK1(K97R)). The format is biochemical. The following applies: class symbols; 8 μM ATP; read-out: IC50 against C-Raf kinase. The protocol:
as §3, with “were 2” for “were 5”, “recombinant C-Raf” for “recombinant B-Raf(V600E)”

Molecules are shown by their SMILES. pIC50: −log10 of the molar value. Where two headings read alike, the source gives them in different places.

T4 sequence (P15056 whole entry): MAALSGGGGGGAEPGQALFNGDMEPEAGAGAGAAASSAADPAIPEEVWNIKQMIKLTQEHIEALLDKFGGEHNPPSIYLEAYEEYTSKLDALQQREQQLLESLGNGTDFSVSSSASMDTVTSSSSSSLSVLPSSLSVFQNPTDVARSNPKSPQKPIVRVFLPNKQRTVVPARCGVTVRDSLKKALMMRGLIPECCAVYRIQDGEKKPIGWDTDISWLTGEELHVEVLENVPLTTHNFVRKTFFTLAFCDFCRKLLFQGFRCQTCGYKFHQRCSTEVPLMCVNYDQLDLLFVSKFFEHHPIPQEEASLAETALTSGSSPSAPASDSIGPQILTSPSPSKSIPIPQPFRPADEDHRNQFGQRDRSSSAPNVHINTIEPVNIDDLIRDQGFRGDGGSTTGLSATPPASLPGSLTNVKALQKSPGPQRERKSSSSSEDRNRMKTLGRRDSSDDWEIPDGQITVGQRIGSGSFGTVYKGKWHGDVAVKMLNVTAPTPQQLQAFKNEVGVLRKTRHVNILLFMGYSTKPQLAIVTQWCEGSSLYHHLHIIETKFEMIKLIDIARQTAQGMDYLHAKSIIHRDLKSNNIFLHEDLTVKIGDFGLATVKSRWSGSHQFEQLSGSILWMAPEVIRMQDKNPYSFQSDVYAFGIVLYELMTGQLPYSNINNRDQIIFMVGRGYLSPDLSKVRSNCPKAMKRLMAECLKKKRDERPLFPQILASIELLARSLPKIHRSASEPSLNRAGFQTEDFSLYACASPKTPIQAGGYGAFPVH
T3 sequence (P00533 712-979 limits assumed): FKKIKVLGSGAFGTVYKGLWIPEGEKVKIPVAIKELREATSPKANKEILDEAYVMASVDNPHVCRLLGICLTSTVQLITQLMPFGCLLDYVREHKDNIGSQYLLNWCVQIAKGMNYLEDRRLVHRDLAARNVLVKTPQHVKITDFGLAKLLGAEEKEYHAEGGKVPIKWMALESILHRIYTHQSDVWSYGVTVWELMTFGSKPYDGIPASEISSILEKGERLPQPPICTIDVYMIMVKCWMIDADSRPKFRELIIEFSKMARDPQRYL
T2 sequence (P15056 whole entry V600E): as the sequence (P15056 whole entry) above, with V600E counted along it
T5 sequence (P04049 whole entry): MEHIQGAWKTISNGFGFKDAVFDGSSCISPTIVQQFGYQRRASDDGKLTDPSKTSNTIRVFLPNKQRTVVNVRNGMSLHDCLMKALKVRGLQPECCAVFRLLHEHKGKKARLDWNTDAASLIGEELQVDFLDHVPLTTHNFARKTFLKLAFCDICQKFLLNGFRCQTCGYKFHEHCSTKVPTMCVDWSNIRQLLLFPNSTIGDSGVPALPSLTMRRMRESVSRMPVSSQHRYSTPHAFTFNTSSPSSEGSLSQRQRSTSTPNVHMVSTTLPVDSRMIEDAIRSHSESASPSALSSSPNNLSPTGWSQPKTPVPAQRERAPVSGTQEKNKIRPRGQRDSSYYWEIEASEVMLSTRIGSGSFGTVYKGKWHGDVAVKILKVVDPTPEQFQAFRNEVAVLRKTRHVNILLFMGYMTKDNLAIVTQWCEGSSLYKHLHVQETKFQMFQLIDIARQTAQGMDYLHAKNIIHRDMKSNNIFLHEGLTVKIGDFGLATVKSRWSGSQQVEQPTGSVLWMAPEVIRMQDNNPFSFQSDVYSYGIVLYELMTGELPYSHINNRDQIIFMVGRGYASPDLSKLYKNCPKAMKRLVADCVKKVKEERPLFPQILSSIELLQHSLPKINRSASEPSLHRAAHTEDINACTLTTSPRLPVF
T1 sequence (P35968 834-1162 limits assumed): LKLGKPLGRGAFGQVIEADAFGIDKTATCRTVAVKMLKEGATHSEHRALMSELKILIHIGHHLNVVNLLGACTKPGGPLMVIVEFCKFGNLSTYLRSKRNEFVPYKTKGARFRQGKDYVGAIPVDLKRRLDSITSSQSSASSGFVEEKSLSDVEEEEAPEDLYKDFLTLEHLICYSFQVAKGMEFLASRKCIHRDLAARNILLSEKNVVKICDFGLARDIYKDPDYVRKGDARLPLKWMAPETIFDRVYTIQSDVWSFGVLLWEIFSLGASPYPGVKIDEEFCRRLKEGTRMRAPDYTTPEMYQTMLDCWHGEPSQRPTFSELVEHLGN

A word on the pIC50: it is the negative decadic logarithm of the IC50, by convention in mol/L. As to `CCCS(=O)(=O)Nc1ccc(F)c(Nc2ncnc3ccc(-c4cccnc4Cl)cc23)c1F` [compound 57, N-(3-(6-(2-chloropyridin-3-yl)-quinazolin-4-ylamino)-2,4-difluorophenyl)propane-1-sulfonamide], the pIC50 in assay [1] is less than 5.52; in assay [2], more than 5.70; in assay [3], more than 6.52; in assay [4] (given as bound), less than 5.52; in assay [5], more than 6.52; in assay [6], more than 6.52.
Consider `CCCS(=O)(=O)Nc1ccc(F)c(Nc2ncnc3ccc(-c4ccc(OCCN(C)C)nc4)cc23)c1F` [compound 35, N-(3-(6-(6-(2-(dimethylamino)ethoxy)-pyridin-3-yl)quinazolin-4-ylamino)-2,4-difluorophenyl)propane-1-sulfonamide], for which the negative-log IC50 (pIC50) in assay [1] is less than 5.52; in assay [2], more than 5.70; in assay [3], more than 6.52; in assay [4] (class symbols) it was 6.00 to 6.52; in assay [5] it was more than 6.52; in assay [6], 5.00 to 6.00.
With `CCCS(=O)(=O)Nc1ccc(F)c(Nc2ncnc3ccc(-c4cnc(N)nc4)cc23)c1F` [compound 50, N-(3-(6-(2-aminopyrimidin-5-yl)quinazolin-4-ylamino)-2,4-difluorophenyl)propane-1-sulfonamide], the negative-log IC50 (pIC50) was less than 5.52 in assay [1]; more than 5.70 in assay [2]; 6.00 to 6.52 in assay [3]; less than 5.52 in assay [4] (given as bound); more than 6.52 in assay [5]; 6.00 to 6.52 in assay [6].
Regarding `CCCCS(=O)(=O)Nc1ccc(F)c(Nc2ncnc3ccc(-c4cccnc4F)cc23)c1F` [compound 18, N-(2,4-difluoro-3-(6-(2-fluoropyridin-3-yl)quinazolin-4-ylamino)phenyl)butane-1-sulfonamide], the negative logarithm of the IC50 (pIC50) is less than 5.52 in assay [1]; more than 5.70 in assay [2]; more than 6.52 in assay [3]; less than 5.52 in assay [4] (given as bound); more than 6.52 in assay [5]; more than 6.52 in assay [6].
On to `CCCS(=O)(=O)Nc1ccc(F)c(Nc2ncnc3cc(F)c(-c4cccnc4F)cc23)c1F` [compound 7, N-(2,4-difluoro-3-(7-fluoro-6-(2-fluoropyridin-3-yl)quinazolin-4-ylamino)phenyl)propane-1-sulfonamide], for which the negative-log IC50 (pIC50) in assay [1] is less than 5.52; in assay [2] it was more than 5.70; in assay [3] it was more than 6.52; in assay [4] (given as bound) it was less than 5.52; in assay [5] it was more than 6.52; in assay [6] it was more than 6.52.
On to `CCCS(=O)(=O)Nc1ccc(F)c(Nc2ncnc3ccc(-c4cccc(OC)n4)cc23)c1F` [compound 37, N-(2,4-difluoro-3-(6-(6-methoxypyridin-2-yl)quinazolin-4-ylamino)phenyl)propane-1-sulfonamide], for which the pIC50 in assay [1] is less than 5.52; in assay [2] it was more than 5.70; in assay [3], more than 6.52; in assay [4] (class symbols), 6.00 to 6.52; in assay [5], more than 6.52; in assay [6], 6.00 to 6.52.
As for `CCCS(=O)(=O)Nc1ccc(F)c(Nc2ncnc3ccc(-c4cccnc4F)cc23)c1Cl` [compound 9, N-(2-chloro-4-fluoro-3-(6-(2-fluoropyridin-3-yl)quinazolin-4-ylamino)phenyl)propane-1-sulfonamide], the negative logarithm of the IC50 (pIC50) in assay [3], in assay [5] and in assay [6] was 5.00 to 6.00 in each case.
As to `CCCS(=O)(=O)Nc1ccc(F)c(Nc2ncnc3ccc(-c4ccc(N(C)C)nc4)cc23)c1F` [compound 54, N-(3-(6-(6-(dimethylamino)pyridin-3-yl)quinazolin-4-ylamino)-2,4-difluorophenyl)propane-1-sulfonamide], the pIC50 in assay [3], in assay [5] and in assay [6] was 6.00 to 6.52 throughout.
Consider `CCCS(=O)(=O)Nc1ccc(F)c(Nc2ncnc3ccc(-c4cn[nH]c4)cc23)c1F` [compound 4, N-(3-(6-(1H-pyrazol-4-yl)quinazolin-4-ylamino)-2,4-difluorophenyl)propane-1-sulfonamide], for which the pIC50 in assay [1] is less than 5.52; in assay [3], more than 6.52; in assay [4] (class symbols), 6.00 to 6.52; in assay [5], more than 6.52; in assay [6], more than 6.52.
For `CCCS(=O)(=O)Nc1ccc(F)c(Nc2ncnc3ccc(-c4cnc(N(C)C)nc4)cc23)c1F` [compound 51, N-(3-(6-(2-(dimethylamino)pyrimidin-5-yl)quinazolin-4-ylamino)-2,4-difluorophenyl)propane-1-sulfonamide], the pIC50 was 6.00 to 6.52 in assay [3], 6.00 to 6.52 in assay [5] and 5.00 to 6.00 in assay [6].
Turning to `CCCS(=O)(=O)Nc1ccc(F)c(C(=O)c2ncnc3ccc(-c4cccnc4F)cc23)c1F` [compound 48, N-(2,4-difluoro-3-(6-(2-fluoropyridin-3-yl)quinazoline-4-carbonyl)phenyl)propane-1-sulfonamide], the pIC50 in assay [1] was less than 5.52; in assay [3], more than 6.52; in assay [4] (given as bound), less than 5.52; in assay [5], more than 6.52; in assay [6] it was more than 6.52.
